In ChEMBL document CHEMBL1146731, “Design, synthesis, and structure-activity relationships of pyrazolo[3,4-d]pyrimidines: a novel class of potent enterovirus inhibitors” (Bioorg Med Chem Lett, 2004):

What was measured:
Rhabdomyosarcoma cell = experiment: Cytotoxic effect of compound towards human Rhabdomyosarcoma cell line was evaluated; type: functional, cell-based
Enterovirus [1] = experiment: Inhibitory concentration to prevent formation of Enterovirus (EV 71) plaques; type: functional, organism-based
Coxsackievirus [2] = experiment: Inhibitory concentration to prevent formation of Coxsackievirus B3 (CVB3) plaques; type: functional, organism-based
Influenza A virus = experiment: Inhibitory concentration of compound against formation of Influenza A virus (WSN) plaque in plaque reduction assay; type: functional, organism-based
Coxsackievirus [3] = experiment: Inhibitory concentration of compound against formation of Coxsackievirus B2 plaque in plaque reduction assay; type: functional, organism-based
Coxsackievirus [4] = experiment: Inhibitory concentration of compound against formation of Coxsackievirus A24 plaque in plaque reduction assay; type: functional, organism-based
Enterovirus [5] = experiment: Inhibitory concentration of compound against formation of Enterovirus 71 (BrCr) genotype A plaque in plaque reduction assay; type: functional, organism-based
Coxsackievirus [6] = experiment: Inhibitory concentration of compound against formation of Coxsackievirus A9 plaque in plaque reduction assay; type: functional, organism-based
Echovirus [7] = experiment: Inhibitory concentration of compound against formation of Echovirus 9 virus plaque in plaque reduction assay; type: functional, organism-based
Enterovirus [8] = experiment: Inhibitory concentration of compound against formation of Enterovirus 71 (2231) genotype C plaque in plaque reduction assay; type: functional, organism-based
Human rhinovirus sp. [9] = experiment: Inhibitory concentration of compound against formation of Human rhinovirus 14 plaque in plaque reduction assay; type: functional, organism-based
Coxsackievirus [10] = experiment: Inhibitory concentration of compound against formation of Coxsackievirus B6 plaque in plaque reduction assay; type: functional, organism-based
Coxsackievirus [11] = experiment: Inhibitory concentration of compound against formation of Coxsackievirus A10 plaque in plaque reduction assay; type: functional, organism-based
Coxsackievirus [12] = experiment: Inhibitory concentration of compound against formation of Coxsackievirus B1 plaque in plaque reduction assay; type: functional, organism-based; conditions: Coxsackievirus
Coxsackievirus [13] = experiment: Inhibitory concentration of compound against formation of Coxsackievirus A16 plaque in plaque reduction assay; type: functional, organism-based
Coxsackievirus [14] = experiment: Inhibitory concentration of compound against formation of Coxsackievirus B4 plaque in plaque reduction assay; type: functional, organism-based
Influenza B virus = experiment: Inhibitory concentration of compound against formation of Influenza A virus (HK) plaque in plaque reduction assay; type: functional, organism-based
Enterovirus [15] = experiment: Inhibitory concentration of compound against formation of Enterovirus 68 (EV 68) plaque in plaque reduction assay; type: functional, organism-based
Coxsackievirus [16] = experiment: Inhibitory concentration of compound against formation of Coxsackievirus B3 plaque in plaque reduction assay; type: functional, organism-based
Echovirus [17] = experiment: Inhibitory concentration of compound against formation of Echovirus 29 virus plaque in plaque reduction assay; type: functional, organism-based
Human alphaherpesvirus 1 = experiment: Inhibitory concentration of compound against formation of Herpes simplex virus 1 plaque in plaque reduction assay
Human rhinovirus sp. [18] = experiment: Inhibitory concentration of compound against formation of Human rhinovirus 2 plaque in plaque reduction assay; type: functional, organism-based
Coxsackievirus [19] = experiment: Inhibitory concentration of compound against formation of Coxsackievirus B5 plaque in plaque reduction assay; type: functional, organism-based
Enterovirus [20] = experiment: Inhibitory concentration of compound against formation of Enterovirus 71 (1743) genotype B plaque in plaque reduction assay; type: functional, organism-based

## Cc1ccccc1C(c1ccccc1)N1CCN(c2ncnc3c2cnn3-c2ccccc2)CC1 (stereo not given)
Rhabdomyosarcoma cell
  IC50: > 25000 nM
Enterovirus [1]
  IC50: 1980 nM
Coxsackievirus [2]
  IC50: 310 nM

## c1ccc(C(c2cccnc2)N2CCN(c3ncnc4c3cnn4-c3ccccc3)CC2)cc1 (stereo not given)
Rhabdomyosarcoma cell
  IC50: > 25000 nM
Enterovirus [1]
  IC50: 4600 nM
Coxsackievirus [2]
  IC50: 530 nM

## CCn1ncc2c(N3CCN(C(c4ccccc4)c4ccccc4)CC3)ncnc21
Rhabdomyosarcoma cell
  IC50: > 25000 nM
Enterovirus [1]
  IC50: > 25000 nM
Coxsackievirus [2]
  IC50: > 25000 nM

## Cc1ccsc1C(c1ccccc1Br)N1CCN(c2ncnc3c2cnn3-c2ccccc2)CC1 (stereo not given)
Rhabdomyosarcoma cell
  IC50: > 25000 nM
Enterovirus [1]
  IC50: 320 nM
Coxsackievirus [2]
  IC50: 72 nM

## Cc1ccsc1C(c1ccccn1)N1CCN(c2ncnc3c2cnn3-c2ccccc2)CC1 (stereo not given)
Rhabdomyosarcoma cell
  IC50: > 25000 nM
Enterovirus [1]
  IC50: 360 nM
Coxsackievirus [2]
  IC50: 63 nM

## c1ccc(C(c2ccncc2)N2CCN(c3ncnc4c3cnn4-c3ccccc3)CC2)cc1 (stereo not given)
Rhabdomyosarcoma cell
  IC50: > 25000 nM
Enterovirus [1]
  IC50: 780 nM
Coxsackievirus [2]
  IC50: 300 nM

## c1ccc(C(c2ccccc2)N2CCN(c3ncnc4c3cnn4-c3ccccc3)CC2)cc1
Influenza A virus
  IC50: > 25000 nM
Coxsackievirus [3]
  IC50: 80 nM
Coxsackievirus [4]
  IC50: 50 nM
Enterovirus [5]
  IC50: 350 nM
Rhabdomyosarcoma cell
  IC50: > 25000 nM
Coxsackievirus [6]
  IC50: 260 nM
Echovirus [7]
  IC50: 300 nM
Enterovirus [8]
  IC50: 520 nM
Human rhinovirus sp. [9]
  IC50: > 25000 nM
Enterovirus [1]
  IC50: 410 nM
Coxsackievirus [10]
  IC50: 940 nM
Coxsackievirus [11]
  IC50: 390 nM
Coxsackievirus [12]
  IC50: 690 nM
Coxsackievirus [13]
  IC50: 230 nM
Coxsackievirus [14]
  IC50: 160 nM
Influenza B virus
  IC50: > 25000 nM
Enterovirus [15]
  IC50: 180 nM
Coxsackievirus [16]
  IC50: 150 nM
Echovirus [17]
  IC50: > 25000 nM
Human alphaherpesvirus 1
  IC50: > 25000 nM
Human rhinovirus sp. [18]
  IC50: > 25000 nM
Coxsackievirus [19]
  IC50: 440 nM
Coxsackievirus [2]
  IC50: 150 nM
Enterovirus [20]
  IC50: 470 nM

## Cn1ncc2c(N3CCN(C(c4ccccc4)c4ccccc4)CC3)ncnc21
Rhabdomyosarcoma cell
  IC50: > 25000 nM
Enterovirus [1]
  IC50: > 25000 nM
Coxsackievirus [2]
  IC50: > 25000 nM

## Cc1noc(C)c1C(c1ccccc1)N1CCN(c2ncnc3c2cnn3-c2ccccc2)CC1 (stereo not given)
Rhabdomyosarcoma cell
  IC50: > 25000 nM
Enterovirus [1]
  IC50: 580 nM
Coxsackievirus [2]
  IC50: 95 nM

## Cc1ccccc1C(c1sccc1C)N1CCN(c2ncnc3c2cnn3-c2ccccc2)CC1 (stereo not given)
Rhabdomyosarcoma cell
  IC50: > 25000 nM
Enterovirus [1]
  IC50: 410 nM
Coxsackievirus [2]
  IC50: 84 nM

## N#Cc1cccc(C(c2ccccc2)N2CCN(c3ncnc4c3cnn4-c3ccccc3)CC2)c1 (stereo not given)
Rhabdomyosarcoma cell
  IC50: > 25000 nM
Enterovirus [1]
  IC50: 780 nM
Coxsackievirus [2]
  IC50: 110 nM

## c1ccc(C(c2ccccc2)N2CCN(c3[nH]cnc4nncc3-4)CC2)cc1
Rhabdomyosarcoma cell
  IC50: > 25000 nM
Enterovirus [1]
  IC50: > 25000 nM
Coxsackievirus [2]
  IC50: > 25000 nM

## N#Cc1ccc(C(c2ccccc2)N2CCN(c3ncnc4c3cnn4-c3ccccc3)CC2)cc1 (stereo not given)
Rhabdomyosarcoma cell
  IC50: > 25000 nM
Enterovirus [1]
  IC50: 940 nM
Coxsackievirus [2]
  IC50: 180 nM
